According to patent EP0986568B1, “NOVEL CLASS OF NUCLEIC ACID CATIONIC TRANSFECTING AGENTS” (Aventis Pharma S.A., priority 1997, dated 1998):

System: ADN
Assay: Association with DNA, ethidium bromide fluorescence
Type: binding
Settings: 6 nmoles d'agent transfectant/µg d'ADN, 5 µg bromure d'éthidium/ml; for fluorescence dans le chlorure de sodium NaCl à 300 mM: NaCl 300 mM; for fluorescence dans l'eau: in water
From the text: • Les purifications sur HPLC (High Performance Liquid Chromatography) ont été effectuées avec un appareil Waters LC 4000, sur une colonne Vydac C4 éluée par un gradient d'acétonitrile dans l'eau. • Les mesures de fluorescence ont été réalisées sur Perkin Elmer LS50B, en utilisant des longueurs d'onde d'excitation et d'émission respectivement de 260 nm et 590 nm. Les largeurs de fentes pour l'excitation et l'émission sont réglées à 5 nm. La valeur de fluorescence est enregistrée après ajout de 5 µg de bromure d'éthidium/ml en concentration finale. • Les spectres de résonance magnétique nucléaire (RMN) ont été enregistrés, à 300,13 MHz pour le proton ou à 75,47 MHz pour le carbone, sur un appareil Bruker MSL 300 dans le chloroforme deutérié.
Les agents transfectants selon l'invention ont été mis en solution dans l'eau à 10 mM. Les solutions ainsi obtenues sont transparentes et correspondent à une organisation sous forme de micelles de lipide cationique.
Les complexes agent tranfectant/ADN ont été réalisés suivant un rapport de 6 nmoles d'agent transfectant/µg d'ADN.

Substance	fluorescence dans le chlorure de sodium NaCl à 300 mM [%]	fluorescence dans l'eau [%]
méthyl-dioctadécylamido-succinyl-6-tri-O-(amino-2'-éthyl)-2,3,4-β-D-galactopyranoside [8(a)]	55	6
méthyl-dioctadécylamido-phtalyl-6-tri-O-(amino-2'-éthyl)-2,3,4-β-D-galactopyranoside [8(b)]	60	7
